Assay results from PubChem BioAssay AID1918954 (Molecular Pharmacology Branch, DTP, NCI, 2023).
pIC50: −log10 of the molar value. “And” between values parts separate entries of the source, which are not always exact repeats. Equal values may be shown once.

Test system: MDA-MB-468 complex spheroids with HUVEC/MSC, viability
Assay: Anticancer human tumor MDA-MB-468 cell line growth inhibition;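 also: spheroids exposed to agents for seven days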;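 as to viability, T/C: 100% = DMSO vehicle control viability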
Conditions: for viability, T/C: stronger effect = lower value
Description: Multicellular complex tumor spheroid response to LSD1 Inhibitor Iadademstat in combination with a variety of drugs and investigational agents in selected tumor cell lines
The current study was undertaken to assess response to LSD1 inhibitors in combination with standard-of-care drugs and investigational agents in solid tumor complex spheroid models as well as in the K-562 leukemia. Complex spheroids include a stromal component modeled by human endothelial cells (HUVEC) and fibroblasts modeled by human mesenchymal stem cells (MSCs). The concentration ranges selected for each drug and investigational agent were based upon clinically achievable concentrations if the clinical Cmax of the agent was known.
Compounds. The drugs and investigational agents used in this study are listed on Table 1. All of the agents used, including staurosporine (NSC755774) and gemcitabine (NSC613327), were obtained from the Developmental Therapeutics Program, NCI. FDA-approved anticancer drugs are available from the NCI at http://dtp.nci.nih.gov/branches/dscb/oncology_drugset_explanation.html. Drugs and investigational agents were >95% pure by proton nuclear magnetic resonance (NMR) and liquid chromatography/mass spectrometry (LC/MS). Stock solutions were prepared at 400x in DMSO, stored at -70 degrees C, and diluted in fresh medium prior to their use. The final concentration of DMSO in cell culture wells never exceeded 0.25% (v/v). The FDA-approved anticancer drug set is available from the Developmental Therapeutics Program at https://dtp.cancer.gov/organization/dscb/obtaining/available_plates.htm. All drugs and investigational agents were tested over a range starting from a high concentration at or near the clinical Cmax and decreasing in half-log increments. If the clinical Cmax for an agent had not been determined, the highest concentration tested was 10 microM.
Cell Lines. The patient-derived cancer cell (PDC) lines: 292921-168-R-J2-PDC, K24384-001-R-PDC, and 521955-158-R2-J5-PDC pancreatic carcinomas, 556581-035-R-J1 ovarian carcinoma, 324938-238-R-J1-PDC, 855422-203-R-J1-PDC and 883617-216-R-J1-PDC urothelial bladder carcinomas, 743489-274-T-PDC renal cell carcinoma, 138582-R-J1 Merkel cell tumor, K60290-347-R-J1 and K57222-313-R-J1-PDC glioblastomas, 653999-131-R-J2-PDC, LG0703-F948-PDC, and 349418-098-R-PDC non-small cell lung carcinomas, 885512-296-R-J2-PDC, 171881-019-R-J1-PDC breast carcinomas and 186277-243-T-J2-PDC and 233499-124-R-J2-PDC colon carcinomas were obtained from the NCI Patient-Derived Models Repository (PDMR, https://pdmr.cancer.gov). The established cell lines NCI/ADR-RES (RRID:CVCL_14520 and OVCAR-5 (RRID:CVCL_1628) ovarian carcinomas, 786-O (RRID:CVCL_1051) and A498 (RRID:CVCL_A498) renal cell carcinoma, NCI-H211 (ATCC, cat. CRL-5824; RRID:CVCL_1529), NCI-H196 (ATCC, cat. CRL-5823, RRID:CVCL_1509), SW 1271 (ATCC, cat. CRL-2177, RRID:CVCL_1716) and NCI-H1876 (ATCC, cat. CRL-5902, RRID:CVCL_1503) small cell lung carcinomas, MDA-MB-231 (RRID:CVCL_0062) and MDA-MB-468 (RRID:CVCL_0419)breast carcinomas (10-12). Pooled donor human umbilical vein endothelial cells (HUVEC, Lonza, cat. CC-2519) and human mesenchymal stem cells (hMSC, Lonza, cat. PT-2501) were purchased from Lonza (Walkersville, MD).
Cell Culture. All cells were maintained in an incubator at 37 degrees C and 5% CO2 with 95% humidity. The PDC lines were cultured according to standard operating procedures established by the NCI PDMR (https://pdmr.cancer.gov). Briefly all PDCs were thawed and cultured in Matrigel-coated flasks prepared with a working solution of 1X Ham's F-12 nutrient mix, without supplementation (Invitrogen, Waltham, MA, cat. 11765054), 100 U/mL penicillin-streptomycin (Invitrogen, cat. 15140122), and 2.5% Matrigel (Corning Inc., Corning, NY, cat. 354248) for the first three passages. […]

[1] = curve of first compound, second compound 0.1 µM
[2] = curve of first compound, second compound 0.316 µM
[3] = curve of first compound, second compound 1 µM
[4] = curve of first compound, second compound 3.16 µM
[5] = curve of first compound, second compound 10 µM
[6] = second compound 0.1 µM, first compound 0.0316 µM
[7] = second compound 0.1 µM, first compound 0.1 µM
[8] = second compound 0.316 µM, first compound 0.0316 µM
[9] = second compound 0.316 µM, first compound 0.1 µM
[10] = second compound 1 µM, first compound 0.0316 µM
[11] = second compound 1 µM, first compound 0.1 µM
[12] = second compound 3.16 µM, first compound 0.0316 µM
[13] = second compound 3.16 µM, first compound 0.1 µM
[14] = second compound 10 µM, first compound 0.0316 µM
[15] = second compound 10 µM, first compound 0.1 µM

Cn1ncnc1C1c2n[nH]c(=O)c3cc(F)cc(c23)NC1c1ccc(F)cc1 (stereo not given) + NC1CCC(NC2CC2c2ccccc2)CC1
pIC50 [1]: 7.04 | pIC50 [2]: < 7.00 | pIC50 [3]: < 7.00 | pIC50 [4]: < 7.00 | pIC50 [5]: 7.62 | viability, T/C (second compound 0.1 µM, first compound 0.000316 µM): 74.5% | viability, T/C (second compound 0.1 µM, first compound 0.001 µM): 81.9% | viability, T/C (second compound 0.1 µM, first compound 0.00316 µM): 81.3% | viability, T/C (second compound 0.1 µM, first compound 0.01 µM): 71.8% | viability, T/C [6]: 70.8% | viability, T/C [7]: 47.8% | viability, T/C (second compound 0.316 µM, first compound 0.000316 µM): 94.9% | viability, T/C (second compound 0.316 µM, first compound 0.001 µM): 84.6% | viability, T/C (second compound 0.316 µM, first compound 0.00316 µM): 91.5% | viability, T/C (second compound 0.316 µM, first compound 0.01 µM): 76.9% | viability, T/C [8]: 70.8% | viability, T/C [9]: 49.5% | viability, T/C (second compound 1 µM, first compound 0.000316 µM): 65.5% | viability, T/C (second compound 1 µM, first compound 0.001 µM): 85% | viability, T/C (second compound 1 µM, first compound 0.00316 µM): 80.4% | viability, T/C (second compound 1 µM, first compound 0.01 µM): 65.7% | viability, T/C [10]: 60.4% | viability, T/C [11]: 50.3% | viability, T/C (second compound 3.16 µM, first compound 0.000316 µM): 80.6% | viability, T/C (second compound 3.16 µM, first compound 0.001 µM): 86.9% | viability, T/C (second compound 3.16 µM, first compound 0.00316 µM): 72.7% | viability, T/C (second compound 3.16 µM, first compound 0.01 µM): 62.7% | viability, T/C [12]: 60.3% | viability, T/C [13]: 54.7% | viability, T/C (second compound 10 µM, first compound 0.000316 µM): 67.5% | viability, T/C (second compound 10 µM, first compound 0.001 µM): 57% | viability, T/C (second compound 10 µM, first compound 0.00316 µM): 62.4% | viability, T/C (second compound 10 µM, first compound 0.01 µM): 56.4% | viability, T/C [14]: 46.7% | viability, T/C [15]: 40.3%

CCc1c2c(nc3ccc(O)cc13)-c1cc3c(c(=O)n1C2)COC(=O)[C@]3(O)CC
viability, T/C (compound 0.000949 µM): 7.07% and 5.35% | viability, T/C (compound 0.003 µM): 7.03% and 4.74% | viability, T/C (compound 0.00949 µM): 5.45% and 2.28% | viability, T/C (compound 0.03 µM): 2.45% and 0.63% | viability, T/C (compound 0.0949 µM): 2.17% and 0.53% | viability, T/C (compound 0.3 µM): 2.73% and 0.59% | pIC50 (curve of compound): > 9.02

CC(C)c1c(-c2ccccc2)nc2c(C#N)c[nH]n2c1=O + NC1CCC(NC2CC2c2ccccc2)CC1
pIC50 [1]: < 5.00 | pIC50 [2]: < 5.00 | pIC50 [3]: < 5.00 | pIC50 [4]: < 5.00 | pIC50 [5]: < 5.00 | viability, T/C [6]: 96.1% | viability, T/C [7]: 109% | viability, T/C (second compound 0.1 µM, first compound 0.316 µM): 109% | viability, T/C (second compound 0.1 µM, first compound 1 µM): 108% | viability, T/C (second compound 0.1 µM, first compound 3.16 µM): 105% | viability, T/C (second compound 0.1 µM, first compound 10 µM): 85.4% | viability, T/C [8]: 99.2% | viability, T/C [9]: 101% | viability, T/C (second compound 0.316 µM, first compound 0.316 µM): 84.3% | viability, T/C (second compound 0.316 µM, first compound 1 µM): 99.5% | viability, T/C (second compound 0.316 µM, first compound 3.16 µM): 102% | viability, T/C (second compound 0.316 µM, first compound 10 µM): 99.5% | viability, T/C [10]: 102% | viability, T/C [11]: 103% | viability, T/C (second compound 1 µM, first compound 0.316 µM): 96.3% | viability, T/C (second compound 1 µM, first compound 1 µM): 102% | viability, T/C (second compound 1 µM, first compound 3.16 µM): 101% | viability, T/C (second compound 1 µM, first compound 10 µM): 85.8% | viability, T/C [12]: 82.2% | viability, T/C [13]: 102% | viability, T/C (second compound 3.16 µM, first compound 0.316 µM): 77.7% | viability, T/C (second compound 3.16 µM, first compound 1 µM): 95.4% | viability, T/C (second compound 3.16 µM, first compound 3.16 µM): 50.7% | viability, T/C (second compound 3.16 µM, first compound 10 µM): 62.5% | viability, T/C [14]: 74% | viability, T/C [15]: 66.7% | viability, T/C (second compound 10 µM, first compound 0.316 µM): 70.2% | viability, T/C (second compound 10 µM, first compound 1 µM): 57.2% | viability, T/C (second compound 10 µM, first compound 3.16 µM): 66% | viability, T/C (second compound 10 µM, first compound 10 µM): 70.4%

Nc1ncn(C2CC(O)C(CO)S2)c(=O)n1 (stereo not given)
viability, T/C (compound 0.000949 µM): 79.6% and 100% | viability, T/C (compound 0.003 µM): 74.9% and 93.2% | viability, T/C (compound 0.00949 µM): 75.2% and 70.6% | viability, T/C (compound 0.03 µM): 73.4% and 52% | viability, T/C (compound 0.0949 µM): 53.9% and 36.5% | viability, T/C (compound 0.3 µM): 34.9% and 20.4% | pIC50 (curve of compound): 6.92 and 7.45

CC[C@@]1(O)C(=O)OCc2c1cc1n(c2=O)Cc2cc3c(CN(C)C)c(O)ccc3nc2-1
viability, T/C (compound 0.000316 µM): 69% and 95.9% | viability, T/C (compound 0.001 µM): 39.5% and 54.5% | viability, T/C (compound 0.00316 µM): 16.9% and 14% | viability, T/C (compound 0.01 µM): 10.4% and 12.7% | viability, T/C (compound 0.0316 µM): 7.18% and 6.23% | viability, T/C (compound 0.1 µM): 7.59% and 4.68% | pIC50 (curve of compound): 9.18 and 8.94

CC(C)CC(NC(=O)CNC(=O)c1cc(Cl)ccc1Cl)B1OC(=O)CC(CC(=O)O)(C(=O)O)O1 (stereo not given)
viability, T/C (compound 0.000316 µM): 109% | viability, T/C (compound 0.001 µM): 90.5% and 96.4% | viability, T/C (compound 0.00316 µM): 55.3% and 42.1% | viability, T/C (compound 0.01 µM): 11.1% and 5.88% | viability, T/C (compound 0.0316 µM): 1.51% and 0.31% | viability, T/C (compound 0.1 µM): 1.72% and 0.22% | pIC50 (curve of compound): 8.46 and 8.57

Nc1ncn(C2CC(O)C(CO)O2)c(=O)n1 (stereo not given)
viability, T/C (compound 0.00316 µM): 81.4% and 94.2% | viability, T/C (compound 0.01 µM): 59.5% and 67% | viability, T/C (compound 0.0316 µM): 23.6% and 31.2% | viability, T/C (compound 0.1 µM): 15% and 14.6% | viability, T/C (compound 0.316 µM): 12.6% and 11% | viability, T/C (compound 1 µM): 12% and 8.85% | pIC50 (curve of compound): 7.87 and 7.76
